These results are taken from patent publication US10279023B2, “Mucin-associated surface protein as a vaccine against chagas disease” (BOARD OF REGENTS, THE UNIVERSITY OF TEXAS SYSTEM, priority 2013, dated 2019).

For assay [1], the system named is IL-4, IL-10, IL-12, IL-17A, and IFN-gamma. Kind of assay: Evaluation of cytokines (Mouse Inflammatory Cytokines Multi-analyte ELISArray) in immunized, challenged mice. Type of assay: in vivo. Conditions: without the aid of any additional adjuvants. Here is the method:
(§1) C3H/HeNsd female mice (6-8 weeks old) were separated in five groups (4 mice/group). The immunizations were performed via intraperitoneal (i.p.) injection. One control group was immunized with phosphate buffer saline (PBS, placebo). Two control groups for the adjuvants were given 0.9% aluminum hydroxide (AIOH) and KLH at 10 μg/mouse. Two experimental groups were administered 20 μg/mouse of MASPsyn alone and combined with 0.9% aluminum hydroxide, respectively. A total of 3 immunizations every 10-15 days were administered.
Four weeks post-infection, the blood was collected by tail-bleeding and a pool of serum from each experimental group was obtained as described above. Cytokines were measured using Mouse Inflammatory Cytokines Multi-analyte ELISArray Kit. FIG. 2 illustrates cytokine profiles of immunized mice following parasite challenge. Anti-inflammatory (IL-4 and IL-10) and proinflammatory (IFN-γ, IL-12, and IL-17) cytokines were assayed in triplicate by ELISA four weeks after the last immunization and approximately two weeks after the challenge. Each bar represents the mean value±SEM (n=4 animals per group) for each treatment.

In assay [2] the test system is T. cruzi Y strain trypomastigotes. Kind of assay: Challenge - parasitemia and survival of immunized mice. The assay is classed as in vivo, Trypanosoma cruzi. The following applies: without the aid of any additional adjuvants. Here is the method: as §1
Ten days after last immunization mice were inoculated via intraperitoneal injection with 1×10^5 trypomastigote Y strain, the parasitemia and survival were monitored. The parastemia were evaluated every day for the first 12 days then every third day for a total of 21 days. FIG. 1 illustrates the resulting parasitemia and survival for each of the control and experimental groups.

In the next assay the test system is C3H/HeNsd female mice. Put plainly: Evaluation of the humoral immune response (serum antibody titers by ELISA after immunization). The following applies: immunized mice, without the aid of any additional adjuvants. The assay is classed as in vivo. Here is the method:
as §1
Ten days after the last immunization blood was collected by tail bleeding and serum was separated from blood by centrifugation at 2,000 rpm for 10 min. The serum antibody titers were determined by an ELISA. Human Chagasic and normal serum were also tested for antibody titers against MASPsyn.

“DAENPGGEVFNDNKKGLSRV (listed as Trypanosoma cruzi) [MASPsyn]”: in assay [1], the “cytokine (e.g., IL-4, IL-10, IL-12, IL-17A, and IFN-gamma) production” value is “able to stimulate”. Besides, the “survivability of immunized-infected mice” value in assay [2] is “increase survivability”. In the assay on C3H/HeNsd female mice, the antibody production result is “able to stimulate”.
